Experimental findings from patent publication US8633315B2, “Substituted hydroxyethyl amine compounds as beta-secretase modulators and methods of use” (Amgen Inc., priority 2007, dated 2014) are described below.

The target of one experiment is BACE1 (Homo sapiens, UniProt P56817). The experiment is described as follows: In vitro enzymatic BACE FRET (fluorescence resonance energy transfer) assay. In kind it is biochemical. As to the method: In Vitro Enzymatic BACE FRET (Fluorescence Resonance Energy Transfer) Assay (Enzyme Assay Data in Table 1)
BACE1, sequence (P56817 46-501, species assumed): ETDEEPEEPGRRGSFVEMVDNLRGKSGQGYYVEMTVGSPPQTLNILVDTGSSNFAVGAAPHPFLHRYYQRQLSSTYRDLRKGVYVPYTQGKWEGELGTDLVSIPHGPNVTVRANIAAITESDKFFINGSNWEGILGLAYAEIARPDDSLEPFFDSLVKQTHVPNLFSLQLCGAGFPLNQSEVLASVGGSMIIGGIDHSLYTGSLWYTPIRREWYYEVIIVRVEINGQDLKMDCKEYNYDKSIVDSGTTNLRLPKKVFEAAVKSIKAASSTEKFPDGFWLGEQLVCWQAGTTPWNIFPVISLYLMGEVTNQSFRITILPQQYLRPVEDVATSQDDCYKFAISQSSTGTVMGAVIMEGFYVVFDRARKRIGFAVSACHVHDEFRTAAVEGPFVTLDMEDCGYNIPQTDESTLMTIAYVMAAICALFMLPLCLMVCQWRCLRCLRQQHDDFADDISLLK
The assay buffer used in this screen is 0.05 M acetate, pH 4.2, 10% DMSO final, 100 uM genapol (which is a nonionic detergent, below its Critical Micelle Concentration). […] The assay is effectively started by the addition of FRET substrate (50 nM) and the combination is incubated for one hour. The FRET assay is terminated with by addition of Tris buffer, which raises the pH to neutrality, and the fluorescence is determined. The FRET substrate is a peptide with commercially available fluorophore and quencher, on opposite sides of the BACE cleavage site. Proteolytic cleavage of the FRET substrate releases quenching of fluorescence (excitation […] and emission […]).

Experiment [1] deals with Cells stably expressing Amyloid Precursor Protein (APP). In words: In vitro BACE cell-based assay (HEK cell assay): Aβ40 in conditioned medium by sandwich ELISA. Conditions: Aβ40 in conditioned medium after 24 h incubation. Here is the method: In Vitro BACE Cell-Based Assay:
The cell-based assay measures inhibition or reduction of Aβ40 in conditioned medium of test compound treated cells expressing amyloid precursor protein.
Cells stably expressing Amyloid Precursor Protein (APP) were plated at a density of 40K cells/well in 96 well plates (Costar). The cells were cultivated for 24 hours at 37° C. and 5% CO2 in DMEM supplemented with 10% FBS. The test compounds were then added to cells in 10-point dose response concentrations with the starting concentration being either 100 μM or 10 μM. The compounds were diluted from stock solutions in DMSO and the final DMSO concentration of the test compounds on cells was 0.1%. After 24 h of incubation with the test compounds the supernatant conditioned media was collected and the Aβ 40 levels were determined using a sandwich ELISA. The IC50 of the compound was calculated from the percent of control or percent inhibition of Aβ 40 as a function of the concentration of the test compound.
The sandwich ELISA to detect Aβ 40 was performed in 96 well microtiter plates, which were pre-treated with goat anti-rabbit IgG (Pierce). The capture and detecting antibody pair that were used to detect Aβ 40 from cell supernatants were affinity purified pAb40 (Biosource) and biotinylated 6E10 (Signet Labs Inc.), respectively. The optimal concentration for the pAb40 antibody was 3 μg/ml in Superblock/TBS (Pierce) that was supplemented with 0.05% Tween 20 (Sigma). Optimal concentration for the detection antibody 6E10-biotinylated was 0.5 μg/ml in Superblock/TBS (Pierce) that had been supplemented with 2% normal goat serum and 2% normal mouse serum.
Cellular supernatants were incubated with the capture antibody for 3 h at 4° C., followed by 3 wash steps in TBS-tween (0.05%). The detecting antibody incubation was for 2 h at 4° C., again followed by the wash steps as described previously. The final readout of the ELISA is Time-Resolved Fluorescence (counts per minute) using Delfia reagents Streptavidin-Europium and Enhancement solutions (Perkin Elmer) and the Victor 2 multilabel counter (Perkin Elmer).
Of the compounds tested, in-the cell-based assay, data for each of Examples 33-156 is provided in Table 1 and Examples 208-246 are provided in Table 4.
(An ELISA detects its analyte on a solid surface through an enzyme-linked reagent.)

Usually IC50 stands for the point on the concentration scale where inhibition reaches its midpoint. Take `C=CC[C@H](NC(=O)c1cc(F)c(F)c(F)c1)[C@H](O)CN[C@H]1CC2(CCC2)Oc2ncc(CC(C)(C)C)cc21` [Example 79, N-((1S)-1-((1R)-2-(((4′S)-6′-(2,2-dimethylpropyl)-3′,4′-dihydrospiro[cyclobutane-1,2′-pyrano[2,3-b]pyridin]-4′-yl)amino)-1-hydroxyethyl)-3-buten-1-yl)-3,4,5-trifluorobenzamide]: the IC50 at BACE1 is 465 nM; in experiment [1] (Homo sapiens, HEK293, 24 h), 1970 nM.

As to `C=CCC(NC(C)=O)C(O)CNC1CC2(CC(O)C2)Oc2ccc(CC(C)(C)C)cc21` [Example 116, N-((1S)-1-((1R)-2-(((2r,3′R,4S)-6-(2,2-dimethylpropyl)-3′-hydroxy-3,4-dihydrospiro[chromene-2,1′-cyclobutan]-4-yl)amino)-1-hydroxyethyl)-3-buten-1-yl)acetamide], the IC50 (at BACE1; in experiment [1]) was 15 nM each time.

For `C=CC[C@H](NC(=O)c1ccns1)[C@H](O)CN[C@H]1CC2(CCC2)Oc2ncc(CC(C)(C)C)cc21` [Example 130, N-((1S)-1-((1R)-2-(((4′S)-6′-(2,2-dimethylpropyl)-3′,4′-dihydrospiro[cyclobutane-1,2′-pyrano[2,3-b]pyridin]-4′-yl)amino)-1-hydroxyethyl)-3-buten-1-yl)-5-isothiazolecarboxamide], the IC50 at BACE1 is 94 nM; in experiment [1] (Homo sapiens, HEK293, 24 h) it was 190 nM.

For `C=CC[C@H](NC(=O)c1ccc(F)c(F)c1)[C@H](O)CN[C@H]1CC2(CCC2)Oc2ncc(CC(C)(C)C)cc21` [Example 60, N-((1S)-1-((1R)-2-(((4′S)-6′-(2,2-dimethylpropyl)-3′,4′-dihydrospiro[cyclobutane-1,2′-pyrano[2,3-b]pyridin]-4′-yl)amino)-1-hydroxyethyl)-3-buten-1-yl)-3,4-difluorobenzamide], the IC50 on BACE1 was 87 nM; in experiment [1] (Homo sapiens, HEK293, 24 h) it was 361 nM.

In the case of `C=CC[C@H](NC(=O)c1cccnc1)[C@H](O)CN[C@H]1CC2(CCC2)Oc2ncc(CC(C)(C)C)cc21` [Example 96, N-((1S)-1-((1R)-2-(((4′S)-6′-(2,2-dimethylpropyl)-3′,4′-dihydrospiro[cyclobutane-1,2′-pyrano[2,3-b]pyridin]-4′-yl)amino)-1-hydroxyethyl)-3-buten-1-yl)-3-pyridinecarboxamide], the IC50 was 68 nM at BACE1 and 135 nM in experiment [1] (Homo sapiens, HEK293, 24 h).

Take `C=CC[C@H](NC(=O)COC(C)C)[C@H](O)CN[C@H]1CC2(CCC2)Oc2ncc(CC(C)(C)C)cc21` [Example 145, N-((1S)-1-((1R)-2-(((4′S)-6′-(2,2-dimethylpropyl)-3′,4′-dihydrospiro[cyclobutane-1,2′-pyrano[2,3-b]pyridin]-4′-yl)amino)-1-hydroxyethyl)-3-buten-1-yl)-2-((1-methylethyl)oxy)acetamide]: the IC50 at BACE1 came to 77 nM; in experiment [1] (Homo sapiens, HEK293, 24 h) it was 301 nM.

Consider `C=CC[C@H](NC(=O)c1c(F)cccc1F)[C@H](O)CN[C@H]1CC2(CCC2)Oc2ncc(CC(C)(C)C)cc21` [Example 72, N-((1S)-1-((1R)-2-(((4′S)-6′-(2,2-dimethylpropyl)-3′,4′-dihydrospiro[cyclobutane-1,2′-pyrano[2,3-b]pyridin]-4′-yl)amino)-1-hydroxyethyl)-3-buten-1-yl)-2,6-difluorobenzamide], for which the IC50 on BACE1 was found to be 276 nM; in experiment [1] (Homo sapiens, HEK293, 24 h), 3570 nM.

`C=CC[C@H](NC(=O)[C@@H](F)C(F)(F)F)[C@H](O)CN[C@H]1CC2(CCC2)Oc2ncc(CC(C)(C)C)cc21` [Example 137, (2R)-N-((1S)-1-((1R)-2-(((4′S)-6′-(2,2-dimethylpropyl)-3′,4′-dihydrospiro[cyclobutane-1,2′-pyrano[2,3-b]pyridin]-4′-yl)amino)-1-hydroxyethyl)-3-buten-1-yl)-2,3,3,3-tetrafluoropropanamide]: the IC50 worked out at 79 nM on BACE1 and 633 nM in experiment [1] (Homo sapiens, HEK293, 24 h).
